Paper PMC11345399 (The Journal of Biological Chemistry, 2024)
Several values for one entry are separate records, joined by “and”; a condition that tells them apart may be missing. Equal entries are not always repeated. Where two headings read alike, the source gives them in different places. Marks after values point to notes of the source that are not given here.

Assays:
[1] = test system: N#C[C@@]1(c2ccc3c(N)ncnn23)O[C@H](COP(=O)(O)OP(=O)(O)OP(=O)(O)O)[C@@H](O)[C@H]1O; experiment: purified protein, by the assay type; conditions: pH 8.0
[2] = test system: Nc1ncnc2c1ncn2[C@@H]1O[C@H](COP(=O)(O)OP(=O)(O)OP(=O)(O)O)[C@@H](O)[C@H]1O; experiment: purified protein, by the assay type; conditions: pH 8.0
MERS-CoV RdRp = MERS-CoV RdRp (Middle East respiratory syndrome-related coronavirus, UniProt K9N7C7); type: biochemical
HRV-16 RdRp [3] = molecular target: T1, HRV-16 RdRp (Human rhinovirus 16, UniProt Q82122); type: biochemical
EV-71 RdRp [4] = type: biochemical
RSV RdRp = RSV RdRp (Human respiratory syncytial virus A, UniProt P28887); type: biochemical
HMPV RdRp = HMPV RdRp (Human metapneumovirus, UniProt Q6WB93); type: biochemical
HPIV-3 RdRp = HPIV-3 RdRp (Human parainfluenza 3 virus, UniProt P12577); type: biochemical
PIV-5 RdRp = PIV-5 RdRp (Parainfluenza virus 5, UniProt Q88434); type: biochemical
influenza B RdRp [5] = molecular target: T2, influenza B RdRp (Influenza B virus, UniProt Q5V8Y6); type: biochemical
[6] = molecular target: T3, human mitochondrial RNA polymerase (h-mtRNAP) (Homo sapiens, UniProt O00411); type: biochemical
T3 sequence (O00411 42-1230 limits assumed): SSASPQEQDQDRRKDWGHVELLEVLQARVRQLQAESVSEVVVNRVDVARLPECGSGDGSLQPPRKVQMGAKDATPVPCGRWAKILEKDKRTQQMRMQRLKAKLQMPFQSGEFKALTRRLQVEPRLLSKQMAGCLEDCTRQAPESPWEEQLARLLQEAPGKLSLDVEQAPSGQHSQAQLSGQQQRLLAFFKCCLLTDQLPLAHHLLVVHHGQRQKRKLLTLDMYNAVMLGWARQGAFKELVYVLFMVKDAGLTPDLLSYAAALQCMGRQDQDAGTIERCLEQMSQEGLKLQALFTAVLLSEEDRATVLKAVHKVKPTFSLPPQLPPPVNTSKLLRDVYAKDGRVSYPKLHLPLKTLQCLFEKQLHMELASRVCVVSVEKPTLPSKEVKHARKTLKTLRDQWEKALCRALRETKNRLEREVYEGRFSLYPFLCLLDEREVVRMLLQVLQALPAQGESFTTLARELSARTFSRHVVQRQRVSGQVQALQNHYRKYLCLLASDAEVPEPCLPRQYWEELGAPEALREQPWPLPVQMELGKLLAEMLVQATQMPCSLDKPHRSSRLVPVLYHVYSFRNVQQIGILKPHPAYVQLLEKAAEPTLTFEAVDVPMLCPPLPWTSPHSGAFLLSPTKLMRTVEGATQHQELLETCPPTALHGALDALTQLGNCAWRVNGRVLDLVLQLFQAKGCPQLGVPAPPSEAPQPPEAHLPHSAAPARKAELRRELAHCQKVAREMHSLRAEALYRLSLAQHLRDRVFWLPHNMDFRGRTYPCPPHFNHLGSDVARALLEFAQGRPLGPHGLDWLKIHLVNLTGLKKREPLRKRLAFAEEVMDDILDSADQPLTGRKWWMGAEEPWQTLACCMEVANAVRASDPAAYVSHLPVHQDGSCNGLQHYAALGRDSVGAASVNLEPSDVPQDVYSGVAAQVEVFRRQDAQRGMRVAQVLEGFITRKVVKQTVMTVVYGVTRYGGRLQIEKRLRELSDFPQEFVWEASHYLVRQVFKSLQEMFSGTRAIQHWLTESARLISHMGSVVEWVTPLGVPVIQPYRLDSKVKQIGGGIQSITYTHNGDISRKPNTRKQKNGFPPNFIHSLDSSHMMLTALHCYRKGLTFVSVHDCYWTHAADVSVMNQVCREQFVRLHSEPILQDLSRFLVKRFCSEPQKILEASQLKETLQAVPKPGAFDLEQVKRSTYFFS

SARS-CoV-2 RdRp = SARS-CoV-2 RdRp (Severe acute respiratory syndrome coronavirus 2, UniProt P0DTD1); type: biochemical
HRV-16 RdRp [7] = molecular target: T1, HRV-16 RdRp; type: biochemical; remark: listed apart in the source
EV-71 RdRp [8] = type: biochemical; remark: listed apart in the source
SARS-CoV-2 RdRp complex [9] = molecular target: T4, SARS-CoV-2 RdRp complex (Severe acute respiratory syndrome coronavirus 2, UniProt P0DTD1)
MERS-CoV RdRp complex [10] = molecular target: T5, MERS-CoV RdRp complex (Middle East respiratory syndrome-related coronavirus, UniProt K9N7C7)
HRV-16 RdRp (3Dpol) = HRV-16 RdRp (3Dpol) (Human rhinovirus 16, UniProt Q82122)
EV-71 RdRp (3Dpol) = EV-71 RdRp (3Dpol) (Enterovirus A71, UniProt E5RPG3)
RSV RdRp complex [11] = molecular target: T6, RSV RdRp complex (Human respiratory syncytial virus A, UniProt P28887)
HMPV RdRp complex = HMPV RdRp complex (Human metapneumovirus, UniProt Q6WB93)
HPIV-3 RdRp complex = HPIV-3 RdRp complex (Human parainfluenza 3 virus, UniProt P12577)
PIV-5 RdRp complex = PIV-5 RdRp complex (Parainfluenza virus 5, UniProt Q88434)
SARS-CoV-2 RdRp complex [12] = molecular target: T4, SARS-CoV-2 RdRp complex; conditions: cited from earlier work; for Km: previously reported
LASV RdRp [13] = molecular target: T7, LASV RdRp (Mammarenavirus lassaense, UniProt Q6GWS2)
SARS-CoV RdRp complex = conditions: cited from earlier work
MERS-CoV RdRp complex [14] = molecular target: T5, MERS-CoV RdRp complex; conditions: cited from earlier work
RSV RdRp complex [15] = molecular target: T6, RSV RdRp complex; conditions: cited from earlier work
influenza B RdRp [16] = molecular target: T2, influenza B RdRp; conditions: cited from earlier work
LASV RdRp [17] = molecular target: T7, LASV RdRp; conditions: cited from earlier work
[18] = molecular target: T3, human mitochondrial RNA polymerase (h-mtRNAP); conditions: cited from earlier work
[19] = SARS-CoV-2 RdRp, ref Gordon et al. ([45])

HMPV RdRp complex (Human metapneumovirus CAN97-83)
Km [1]: 42.19 ± 7.79 µM

HRV-16 RdRp (3Dpol) (rhinovirus A16)
Km [1]: 4.96 ± 0.27 µM | Km [2]: 4.52 ± 0.31 µM

AMP
Vmax (product fraction) of UTP incorporation at i + 1 (MERS-CoV RdRp): 1.03 ± 0.016 | Vmax (product fraction) of UTP incorporation at i + 1 (HRV-16 RdRp [3]): 0.76 ± 0.015 | Vmax (product fraction) of UTP incorporation at i + 1 (EV-71 RdRp [4]): 0.65 ± 0.003 | Vmax (product fraction) of UTP incorporation at i + 1 (RSV RdRp): 0.70 ± 0.037 | Vmax (product fraction) of UTP incorporation at i + 1 (HMPV RdRp): 0.48 ± 0.026 | Vmax (product fraction) of UTP incorporation at i + 1 (HPIV-3 RdRp): 0.56 ± 0.0097 | Vmax (product fraction) of UTP incorporation at i + 1 (PIV-5 RdRp): 0.51 ± 0.022

N#C[C@@]1(c2ccc3c(N)ncnn23)O[C@H](COP(=O)(O)OP(=O)(O)OP(=O)(O)O)[C@@H](O)[C@H]1O [GS-443902]
Vmax (product fraction) (influenza B RdRp [5]): 0.18 ± 0.0057 | Vmax (product fraction) [6]: 0.67 ± 0.22 | Pattern of inhibition of RNA primer extension after incorporation at position i (SARS-CoV-2 RdRp): intermediate product at position “i + 3” | Vmax (product fraction) of UTP incorporation at i + 1 (SARS-CoV-2 RdRp): 1.13 ± 0.047 | Vmax (product fraction) of UTP incorporation at i + 1 (MERS-CoV RdRp): 0.98 ± 0.018 | Pattern of inhibition of RNA primer extension after incorporation at position i (HRV-16 RdRp [3]): intermediate product at position “i + 3” | Vmax (product fraction) of UTP incorporation at i + 1 (HRV-16 RdRp [3]): 0.67 ± 0.015 | Pattern of inhibition of RNA primer extension after incorporation at position i (EV-71 RdRp [4]): intermediate product at position “i + 3” | Vmax (product fraction) of UTP incorporation at i + 1 (EV-71 RdRp [4]): 0.48 ± 0.005 | Vmax (product fraction) of UTP incorporation at i + 1 (HMPV RdRp): 0.28 ± 0.018 | Vmax (product fraction) of UTP incorporation at i + 1 (HPIV-3 RdRp): 0.58 ± 0.011 | Vmax (product fraction) of UTP incorporation at i + 1 (PIV-5 RdRp): 0.48 ± 0.0089 | Inhibition (fold) vs Template A (HRV-16 RdRp [7]): ~8 fold and 7.8 fold | UTP (HRV-16 RdRp [7]): 3.9 µM | Inhibition (fold) of UTP incorporation across embedded analog (EV-71 RdRp [8]): ~16 fold | Vmax (product fraction) (SARS-CoV-2 RdRp complex [9]): 0.88 ± 0.015 | Vmax (product fraction) (MERS-CoV RdRp complex [10]): 0.90 ± 0.012 | Vmax (product fraction) (HRV-16 RdRp (3Dpol)): 0.96 ± 0.015 and 0.80 ± 0.021 | Vmax (product fraction) (EV-71 RdRp (3Dpol)): 0.93 ± 0.027 and 0.93 ± 0.019 | Vmax (product fraction) (RSV RdRp complex [11]): 0.80 ± 0.059 | Selectivity (fold), Vmax/Km ATP over Vmax/Km analog (HMPV RdRp complex): 6.7 fold and 6.71 fold | Vmax (product fraction) (HMPV RdRp complex): 0.57 ± 0.045 and 0.53 ± 0.027 | Selectivity (fold), Vmax/Km ATP over Vmax/Km analog (HPIV-3 RdRp complex): 7.20 fold | Vmax (product fraction) (HPIV-3 RdRp complex): 0.63 ± 0.010 and 0.78 ± 0.012 | Selectivity (fold), Vmax/Km ATP over Vmax/Km analog (PIV-5 RdRp complex): 8.3 fold and 8.31 fold | Vmax (product fraction) (PIV-5 RdRp complex): 0.77 ± 0.042 and 0.69 ± 0.013 | Km (SARS-CoV-2 RdRp complex [12]; [19]): 0.0089 ± 0.002 µM | Selectivity (fold), Vmax/Km ATP over Vmax/Km analog (SARS-CoV-2 RdRp complex [12]; [19]): 0.28 ^d fold | Vmax (product fraction) (SARS-CoV-2 RdRp complex [12]): 0.74 ± 0.023 | Vmax (product fraction) (LASV RdRp [13]): 0.29 ± 0.091 | Km (SARS-CoV RdRp complex): 0.01 ± 0.0008 µM | Selectivity (fold), Vmax/Km ATP over Vmax/Km analog (SARS-CoV RdRp complex): 0.32 ^d fold | Vmax (product fraction) (SARS-CoV RdRp complex): 0.70 ± 0.015 | Km (MERS-CoV RdRp complex [14]): 0.0063 ± 0.0006 µM | Selectivity (fold), Vmax/Km ATP over Vmax/Km analog (MERS-CoV RdRp complex [14]): 0.35 ^d fold | Vmax (product fraction) (MERS-CoV RdRp complex [14]): 0.50 ± 0.012 | Selectivity (fold), Vmax/Km ATP over Vmax/Km analog (RSV RdRp complex [15]; RSV RdRp, ref Tchesnokov et al. ([47])): 2.7 fold and 2.73 ^e fold | Km (RSV RdRp complex [15]): 0.5 ± 0.089 µM | Vmax (product fraction) (RSV RdRp complex [15]): 0.82 ± 0.027 | Selectivity (fold), Vmax/Km ATP over Vmax/Km analog (influenza B RdRp [16]; FluB RdRp, ref Gordon et al. ([45])): 68 ^d fold | Vmax (product fraction) (influenza B RdRp [16]): 0.45 ± 0.0064 | Km (LASV RdRp [17]): 1.3 ± 0.18 µM | Selectivity (fold), Vmax/Km ATP over Vmax/Km analog (LASV RdRp [17]): 20 ^d fold | Vmax (product fraction) (LASV RdRp [17]): 0.35 ± 0.016 | Km [18]: 21 ± 0.096 µM | Vmax (product fraction) [18]: 0.81 ± 0.013 | Selectivity (fold), Vmax/Km ATP over Vmax/Km analog ([18]; h-mtRNAP, ref Tchesnokov et al. ([47])): 503 ^e fold

HPIV-3 RdRp complex (Human parainfluenza 3 virus (strain NIH 47885))
Km [1]: 0.44 ± 0.040 µM | Km [2]: 0.061 ± 0.015 µM

SARS-CoV-2 RdRp complex (Severe acute respiratory syndrome coronavirus 2)
Km [2]: 0.057 ± 0.0078 µM

MERS-CoV RdRp complex (Betacoronavirus England 1)
Km [2]: 0.032 ± 0.0014 µM

RSV RdRp complex (Human respiratory syncytial virus A2)
Km [2]: 0.97 ± 0.36 µM

PIV-5 RdRp complex (Simian virus 5 (strain W3))
Km [1]: 13 ± 2.3 µM | Km [2]: 1.5 ± 0.25 µM

Nc1ncnc2c1ncn2[C@@H]1O[C@H](COP(=O)(O)OP(=O)(O)OP(=O)(O)O)[C@@H](O)[C@H]1O [ATP]
Vmax (product fraction) (influenza B RdRp [5]): 0.68 ± 0.014 | Km [6]: 0.096 ± 0.0091 µM | Vmax (product fraction) [6]: 0.93 ± 0.026 | Vmax (product fraction) (MERS-CoV RdRp complex [10]): 0.84 ± 0.0090 | Vmax (product fraction) (HRV-16 RdRp (3Dpol)): 0.90 ± 0.017 | Vmax (product fraction) (EV-71 RdRp (3Dpol)): 0.96 ± 0.021 | Vmax (product fraction) (RSV RdRp complex [11]): 0.61 ± 0.065 | Vmax (product fraction) (HMPV RdRp complex): 0.60 ± 0.024 and 0.39 ± 0.028 | Vmax (product fraction) (HPIV-3 RdRp complex): 0.63 ± 0.025 | Vmax (product fraction) (PIV-5 RdRp complex): 0.74 ± 0.026 | Km (SARS-CoV-2 RdRp complex [12]; [19]): 0.03 ± 0.003 µM | Vmax (product fraction) (LASV RdRp [13]): 0.80 ± 0.0037 | Km (SARS-CoV RdRp complex): 0.03 ± 0.003 µM | Vmax (product fraction) (SARS-CoV RdRp complex): 0.73 ± 0.017 | Km (MERS-CoV RdRp complex [14]): 0.017 ± 0.019 µM | Vmax (product fraction) (MERS-CoV RdRp complex [14]): 0.47 ± 0.011 | Km (RSV RdRp complex [15]): 0.17 ± 0.023 µM | Vmax (product fraction) (RSV RdRp complex [15]): 0.76 ± 0.022 | Vmax (product fraction) (influenza B RdRp [16]): 0.73 ± 0.014 | Km (LASV RdRp [17]): 0.11 ± 0.02 µM | Vmax (product fraction) (LASV RdRp [17]): 0.57 ± 0.032 | Km [18]: 0.05 ± 0.0037 µM | Vmax (product fraction) [18]: 0.98 ± 0.018

EV-71 RdRp (3Dpol) (Enterovirus A71)
Km [1]: 0.86 ± 0.081 µM | Km [2]: 0.96 ± 0.066 µM

LASV RdRp (Lassa virus Josiah)
Km [2]: 0.39 ± 0.075 µM
